According to US7605227B2, “Melanoma antigen peptide analogues” (MannKind Corporation, priority 2005, dated 2009):
“Also recorded” adds a separate entry of the source. Square brackets hold non-standard residues; d marks the D form. Ends that are not written are not given here. Nle = CCCC[C@H](N)C(=O)O; Nva = CCC[C@H](N)C(=O)O

Columns and labels:
[1] = system: PRAME+ A2+ 624.38 melanoma cells; test: PRAME immunization, ex vivo cytotoxicity against human tumor cells; type: in vivo, HHD transgenic mice
Procedure: This was followed by two peptide boosts (2.5 μg) at day 28 and 31, with the analog L426Nva L433Nle.

[2] = system: T cell line specific for the native epitope (PRAME425-433); test: Cross-reactivity of PRAME425-433 analogs: IFN-gamma from native-epitope-specific T cell line; type: cell-based; conditions: PRAME425-433 analogs at approximately 0.3 μM
Procedure: The analogs listed in FIGS. 26-28 were tested for various properties such as improved affinity and stability of binding, cross-reactivity with the native epitope, and immunogenicity as follows in Examples 40-48. […] The observed affinities of the analogs are reported as % binding (compared to the positive control) and ED50, and stability of binding as half time of dissociation. Cross reactivity with the native epitope was assessed by using the analog peptides to stimulate IFN-gamma secretion from a T cell line specific for the native epitope, essentially as described in Example 6. The data shown in FIGS. 26-28 were generated by stimulating with analog peptide at approximately 0.3 μM. […] In some cases, the reported values are the average of two determinations.

[3] = system: PRAME425-433-specific T cells; test: pCTLR2 prime, PRAME peptide boost, tetramer/CD8 co-staining; type: in vivo, HHD transgenic mice; conditions: versus boost with negative control peptide
HLA-A*0201 = HLA-A*0201 (Homo sapiens, UniProt P04439, D140Y/D185E/D98H/E176V/E277Q/G131W/G231S/I119V/I121R/I166T/I218V/L300P/L318F/N151K/N90K/P208A/P217A/Q86G/Q94H/R138H/R169H/T345S); test: iTopia affinity assay (ED50); type: binding; conditions: PRAME425-433 analogs
From the text: Avidin-coated microtiter plates containing class I monomer loaded with a so-called placeholder peptide were used to evaluate peptide binding, affinity and off-rate. The monomer-coated plates were supplied as part of the iTopia Epitope Discovery System Kit (Beckman Coulter, Inc., San Diego, Calif., USA). Assay buffers, anti-MHC-FITC mAb and beta2-microglobulin and control peptides were also supplied with the kits.
Plates were read on the fluorometer. Sigmoidal dose response curves were generated using Prism software.

[4] = system: splenocytes stimulated with native peptide; test: pCTLR2 prime, PRAME peptide boost, ex vivo IFN-gamma ELISA; type: in vivo, HHD transgenic mice; conditions: 2.5 μg peptide boost, 10 μg/ml native peptide, 48 hours
[5] = system: native epitope coated cells; test: pCTLR2 prime, PRAME peptide boost, in vivo cytotoxicity (CFSE); set-up: species or system HHD transgenic mice
624.38 cells = test: pSEM prime, Tyrosinase peptide boost, ex vivo cytotoxicity against human tumor cells; type: in vivo, HHD transgenic mice
Procedure: HHD transgenic mice (n=4/group) were immunized (according to the general protocol in FIG. 40) with plasmid (pSEM) expressing the Tyrosinase369-377 epitope by direct inoculation into the inguinal lymph nodes of 25 μg of plasmid in 25 μl of PBS per lymph node at day 0, 3, 14 and 17. […] One week after the boost, splenocytes were stimulated ex vivo with the native Tyrosinase369-377 peptide and assayed against ^51Cr-labeled human tumor cells (624.38 cells) at various E:T ratios. […] Together with the preceding example, this observation illustrates the usefulness of complementing more stringent assays (in vivo cytotoxicity and tetramer staining) with more sensitive assays (ex vivo cytotoxicity after in vitro stimulation) to outline potentially useful analogs.

[6] = system: T cells that recognized native PSMA288-297 peptide; test: Peptide immunization with PSMA analogs, IFN-gamma ELISPOT against native peptide; type: in vivo, HHD transgenic mice; conditions: peptide + pI:C intranodal immunization
Procedure: Groups of HHD transgenic mice (n=8) were immunized with peptide (natural epitope PSMA288-297, or analogs bearing substitutions at primary or secondary anchor residues) by direct inoculation into the inguinal lymph nodes, with 25 μg in 25 μl of PBS+12.5 μg of pI:C to each lymph node at day 0, 3, 14 and 17.
Mice were sacrificed at 10 days after the last boost, and splenocytes prepared and assessed for IFN-γ production by ELISPOT analysis. […] At 48 hours after incubation, the assay was developed and the frequency of cytokine-producing T cells that recognized native PSMA288-297 peptide was automatically counted. The data is represented in FIG. 22 as the number of spot forming colonies/well (mean of triplicates±SD). […] To the extent that the poor immunogenicity of the native epitope reflects tolerance, the improved activity of these analogs represents tolerance breaking.

PSMA+ A2+ LnCap cells = test: PSMA immunization, ex vivo cytotoxicity against human tumor cells; type: in vivo, HHD transgenic mice
Procedure: HHD transgenic mice (n=4) were immunized with PSMA288-297 peptide (25 μg in 25 μl of PBS, plus 12.5 μg of pI:C to each lymph node) at day 0, 3, 14 and 17. One week after the boost, splenocytes were stimulated ex vivo with the native PSMA288-297 peptide and tested against ^51Cr-labeled human tumor cells (PSMA^+ A2^+ LnCap cells, or as negative control, LnCap cells coated with MHC class I-blocking antibody) at various E:T ratios.
HHD transgenic mice (n=4) were immunized with plasmid expressing the PSMA288-297 epitope by direct inoculation into the inguinal lymph nodes with 25 μg in 25 μl of PBS to each lymph node at day 0, 3, 14 and 17. This was followed by two peptide boosts (same amount) at day 28 and 31, with the analog I297V. One week after the boost, splenocytes were stimulated ex vivo with the native PSMA288-297 peptide and tested overnight against ^51Cr-labeled human tumor cells (Lncap, A2^+ PSMA^+; or 624.38 A2^+ PSMA^− or control 624.28 cells A2^− PSMA^−) at various E:T ratios.

[7] = system: T cells that recognized the PSMA288-297 peptide; test: Plasmid prime, PSMA peptide boost, IFN-gamma ELISPOT; type: in vivo, HHD transgenic mice; conditions: versus natural peptide boost
Procedure: Two groups of HHD transgenic mice (n=8) were immunized with plasmid expressing PSMA288-297 by direct inoculation into the inguinal lymph nodes with 25 μg in 25 μl of PBS to each lymph node at day 0, 3, 14 and 17. This was followed by two peptide boosts (25 μg) at day 28 and 31 with either the natural peptide or the I297V analog.
Mice were sacrificed at 10 days after the last boost, and splenocytes prepared and assessed for IFN-γ production by ELISPOT analysis. […] At 48 hours after incubation, the assay was developed and the frequency of cytokine-producing T cells that recognized the PSMA288-297 peptide was automatically counted. The data is represented in FIG. 23 as frequency of specific T cells normalized to 0.5 million responder cells (mean of triplicates+SD).

[8] = system: T cells specific for the wild-type NY-ESO-1157-165 epitope; test: Cross-reactivity and functional avidity of NY-ESO-1 157-165 analogs (IFN-gamma); type: cell-based, HHD transgenic mice
From the text: A methodology was devised to allow rapid and rational screening of peptide analogs in a fashion coherent with proposed methods of use and modeling the overall immunologic properties (Kon and Koff relative to MHC interaction and TCR binding properties in an integrated fashion). In some instances, the method included generating T cell lines against a natural (non-mutated) epitope (SSX-241-49), and using an immunization strategy potent enough to generate a useful response in transgenic mice carrying human MHC (such as the A2 allele). Peptide analogs were interrogated ex vivo in the presence of competent APCs and the functional impact of T cells specific for natural (non-mutated) epitopes measured. The evaluation was done at various concentrations of analog, because the expected effect was biphasic in the case of cross reactive peptides (activating at limited concentrations and inhibiting at higher concentrations, due to antigen-induced cell death, AICD). Measurement of the following three parameters were used to define basic and useful characteristics of peptide analogs: • 1. […]
At 7 days after the last boost, the mice were sacrificed and a suspension of splenocytes prepared at 5×10^6 […] cells/ml in complete HL-1 medium. […] The supernatant was harvested and the concentration of IFN-gamma assessed by standard methods such as ELISA. […]

[9] = system: target cells coated with natural peptide; test: Plasmid prime, SSX-2 peptide boost, in vivo cytotoxicity (CFSE); set-up: species or system HHD mice; conditions: spleen and blood; targets coated with 20 μg/ml and 1 μg/ml natural peptide
Procedure: Eight groups of mice (n=4) were immunized with plasmid expressing SSX-241-49 natural epitope, by direct inoculation into the inguinal lymph nodes with 25 μg in 25 μl of PBS/each lymph node at day 0, 3, 14 and 17. This was followed by two additional peptide boosts (similar amount) at day 28 and 31, using a negative control peptide (Melan A 26-35 “EAA”), natural peptide or analogs as shown in FIG. 9.
To evaluate the in vivo response against natural peptide, splenocytes were isolated from littermate control HHD mice and incubated with 20 μg/mL or 1 μg/ml of natural peptide for 2 hours. These cells were then stained with CFSE^hi fluorescence (4.0 μM or 1 μM for 15 minutes) and intravenously co-injected into immunized mice with an equal number of control splenocytes stained with CFSE^lo fluorescence (0.4 μM). Eighteen hours later the specific elimination of target cells was measured by removing spleen and PBMC from challenged animals and measuring CFSE fluorescence by flow cytometry. The relative depletion of the populations corresponding to peptide loaded splenocytes was calculated relative to the control (unloaded) population and expressed as % specific lysis. FIGS. 10 (spleen) and 11 (blood) show the in vivo cytotoxicity elicited by the regimens described in FIG. 7.

[10] = system: T cell lines against a natural (non-mutated) epitope (SSX-241-49); test: Cross-reactivity and functional avidity: IFN-gamma from T cell lines against natural SSX-2 41-49 epitope; type: cell-based, HHD transgenic mice; conditions: IFN-gamma from T cell line raised against native SSX-2 41-49; native = 1, lower = more active;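 also: peptide analogs tested ex vivo with competent APCs, IFN-gamma in supernatant measured by ELISA, readouts include minimal triggering concentration, peak effect and concentration at peak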
[11] = system: 51Cr-labeled target cells (T2 cells); test: Plasmid prime, SSX-2 peptide boost, ex vivo 51Cr cytotoxicity against T2 target cells; type: in vivo, mice; conditions: peptide as boost agent after plasmid; 51Cr T2 targets
Procedure: Three groups of mice (n=4) were immunized with a plasmid expressing SSX-241-49 natural epitope by direct inoculation into the inguinal lymph nodes with 25 μg in 25 μl of PBS/each lymph node at day 0, 3, 14 and 17. This was followed by two additional peptide boosts (similar amount) at day 28 and 31. One week after the boost, splenocytes were stimulated ex vivo with SSX-241-49 natural peptide and tested against ^51Cr-labeled target cells (T2 cells) at various E:T ratios (FIG. 8). […] This correlated with the binding and stability parameters determined by ex vivo experimentation.

624.38 melanoma cells = test: Plasmid prime, SSX-2 peptide boost, ex vivo cytotoxicity against human tumor cells; type: in vivo, mice; conditions: ex vivo after boost
Procedure: Eight groups of mice (n=4) were immunized with plasmid expressing SSX-241-49 natural epitope by direct inoculation into the inguinal lymph nodes with 25 μg in 25 μl of PBS/each lymph node at day 0, 3, 14 and 17. This was followed by two additional peptide boosts (similar amount) at day 28 and 31, using a negative control peptide (Melan A 26-35 “EAA”), natural peptide or analogs as shown in FIG. 9.

S{Nva}LQHLIG{Nle} (S[Nva]LQHLIG[Nle]) [Prame 425-433 (L426Nva, L433Nle)]
ex vivo cytotoxicity against A2+ PRAME+ 624.38 cells, in words ([1]; mouse, in vivo): cytotoxic immunity against a human tumor cell line; also recorded: significant cytotoxicity against human tumor cells expressing A2 (624.38)
ex vivo cytotoxicity against A2- 624.28 control cells, in words ([1]; negative control cells): no significant activity
IFN-γ production (cross-reactivity) relative to native, in words [2]: significant level of cross-reactivity
expansion of native epitope-specific T cells (tetramer), in words [3]: significantly higher than in mice primed with plasmid and boosted with the negative control peptide
affinity (ED50) / binding characteristics relative to native, in words (HLA-A*0201): similar, somewhat improved binding characteristics
IFN-γ production by splenocytes (ELISA), in words ([4]; listed as L426Nva L433Nle): greater response
IFN-γ production by splenocytes (ELISA), in words ([4]; listed as PRAME425-433 L426Nva L433Nle): significant enhancement of IFN-γ production
in vivo cytotoxicity against native epitope, in words [5]: cytotoxic immunity against native epitope coated cells; also recorded: capable of expanding the immunity against the native epitope

YVDGTMSQNva (YVDGTMSQ[Nva]) [M370V V377Nva]
ex vivo cytotoxicity against 624.38 cells, in words (624.38 cells): robust cytotoxicity against 624.38 cells

GLPSIPVHPV [PSMA 288-297(I297V)]
IFN-γ ELISPOT response against native epitope, in words [6]: increased priming of immune responses against the native epitope
ex vivo cytotoxicity against PSMA+ human tumor cells, in words (PSMA+ A2+ LnCap cells): cytotoxic immunity against a PSMA^+ human tumor line; also recorded: effective in mediating cytotoxicity against LNCAP
frequency of native epitope-specific T cells (ELISPOT), in words [7]: considerably higher

L158V: NY-ESO-1 157-165 analog with V for L at position 158 (SVLMWITQC; UniProt P78358 157-165, looked up, variant L158V) [Peptide L158V]
cross-reactivity / activity relative to wild-type, in words [8]: partial retention of activity

CC[C@H](C)[C@H](NC(=O)[C@H](CCCCN)NC(=O)[C@H](CCC(=O)O)NC(=O)[C@H](CO)NC(=O)[C@@H](NC(=O)[C@@H](N)CCCCN)C(C)C)C(=O)N[C@@H](Cc1ccccc1)C(=O)N[C@@H](Cc1ccc(O)cc1)C(=O)N[C@H](C(=O)O)C(C)C [SSX2 41-49 (A42V)]
in vivo cytotoxicity (% specific lysis), in words [9]: increased activity relative to the natural peptide
Cross-reactivity and fct avidity (native to analogs)* [10]: 0.03
response against target cells expressing the natural peptide [11]: higher response against target cells expressing the natural peptide
cytotoxicity against human tumor cells, in words (624.38 melanoma cells): increased cytotoxicity against human tumor cells

YMDGTMSQV [Tyrosinase 369-377, reference compound]
ex vivo cytotoxicity against 624.38 cells, in words (624.38 cells): robust cytotoxicity against 624.38 cells
